Assay results as given in paper PMC10281575, “PfCRT mutations conferring piperaquine resistance in falciparum malaria shape the kinetics of quinoline drug binding and transport” (PLOS Pathogens, 2023).
Where “and” joins values, the source holds several entries; their conditions need not be identical. Equal values may be shown once. Read-outs that look alike come from different tables or passages of the source.

Target: T1, PfCRT^Dd2 (Plasmodium falciparum, UniProt Q8IBZ9, A220S/I356T/K76T/M74I/N326S/N75E/Q271E/R371I)
T1 sequence (Q8IBZ9 1-424 M74I/N75E/K76T/A220S/Q271E/N326S/I356T/R371I): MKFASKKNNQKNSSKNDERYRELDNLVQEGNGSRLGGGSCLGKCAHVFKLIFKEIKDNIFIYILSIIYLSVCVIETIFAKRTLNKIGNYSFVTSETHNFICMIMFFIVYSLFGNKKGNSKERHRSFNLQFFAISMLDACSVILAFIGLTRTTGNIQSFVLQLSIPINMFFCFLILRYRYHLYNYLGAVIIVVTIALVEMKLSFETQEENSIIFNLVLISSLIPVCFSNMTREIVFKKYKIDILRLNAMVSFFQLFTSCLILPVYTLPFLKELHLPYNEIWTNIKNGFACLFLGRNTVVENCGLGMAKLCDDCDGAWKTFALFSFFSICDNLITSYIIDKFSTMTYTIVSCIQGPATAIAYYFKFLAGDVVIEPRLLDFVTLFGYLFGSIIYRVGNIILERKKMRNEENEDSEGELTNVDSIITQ
Experiment: Competition kinetics of drug transport (radiolabeled substrate plus cold inhibitor), PfCRT^Dd2-expressing oocytes
Type: cell-based
Parameters: expressed in transfected cells; host or cells: Xenopus laevis oocytes injected with in vitro transcribed RNA (pSP64T)
Details: for PfCRTDd2-mediated PPQ transport 500 µM PPQ: single replicates; for Vmax, maximal velocity of drug transport: global fit; for β, partiality factor: factor on transport of the labeled drug by the other drug
Protocol: The experimental procedure and the data analysis were as described above.
The difference between the two models lies in the value of α, a parameter describing how much the affinity for the substrate changes when the inhibitor is already bound, and vice versa. […] The resulting Vmax,app values and the Vmax,app/KM,app ratios were plotted as a function of the inhibitor concentration (Fig 5A).
Drug transport assays were performed as previously described. Briefly, measurements of radiolabeled drug uptake were made over 1 h, unless otherwise specified. […] Where specified, one or more unlabeled drugs were also present at the indicated concentrations. […] The uptake assays were terminated by removing the oocytes from the reaction medium and washing them three times with 2 mL of ice-cold ND96 buffer. Each oocyte was transferred to a separate scintillation vial and lysed by the addition of 200 μL of a 5% SDS solution. The radioactivity in the sample was measured using a liquid scintillation analyser Tri-Carb 4910 TR (PerkinElmer). Water-injected oocytes were analyzed in parallel as a negative control. The buffer from each condition was measured in duplicate in parallel to each experiment to transform counts per minute into pmol of drug. Drug uptake attributable to PfCRT was determined by subtracting the background uptake from water-injected oocytes from that of PfCRT-expressing oocytes. In all cases, at least three independent experiments were performed on oocytes from different frogs, and for each condition in an experiment, measurements were made from 10 oocytes per treatment.
The following equations were adopted from Segel (1993), and the reader is referred to that text for the assumptions made in the author’s approach in the derivation of each equation [31]. The concentration of substrate is denoted as [S1] and the concentration of the inhibiting substrate is denoted as [S2]. KS1 and KS2 are the dissociation constants for the respective substrate-protein complexes.
Analyses of the kinetic data were performed using SigmaPlot version 13.0 and Python. The drug competition models were globally fit to the kinetic data using the least-squares method and ranked according to their corrected Akaike information criterion difference (ΔAICC) and their Akaike weight, using Python. The two top-ranked models were compared using an F-test.
This factor reflects how much the affinity of the transporter for one drug changes when the other drug is already bound in the protein cavity. In the former model, α > 0 and α ≠ 1. In the latter model, it could be thought of as if α = 1. Because of this, discriminating between the two models also means determining the value of α. In Mixed-type (Partial) inhibition, the apparent maximal velocity (Vmax,app) is given by Eq 22, Vmax,app=Vmax(1+β[S2]/αKS2)/(1+[S2]/αKS2) (Eq 22)
Vmax,app is the maximal rate of substrate transport at a certain inhibitor concentration. The half-maximal inhibitory concentration is given by the term in the denominator different from [S2], which in this case is αKS2. This means that by plotting Vmax,app as a function of [S2], the value of αKS2 can be derived after fitting the curve to Eq 23.
The half-maximal inhibitory concentration derived from this hyperbolic equation is equal to KS2. By plotting Vmax,app/KM,app as a function of [S2], one can derive KS2 after fitting the curve to Eq 25. The value of α can then be calculated dividing αKS2 by KS2.

Clc1ccc2c(N3CCN(CCCN4CCN(c5ccnc6cc(Cl)ccc56)CC4)CC3)ccnc2c1 [PPQ, piperaquine]
PfCRTDd2-mediated PPQ transport 500 µM PPQ (50 µM CQ): 89.07 pmol oocyte-1 h-1 and 87.88 pmol oocyte-1 h-1 and 107.53 pmol oocyte-1 h-1
PfCRTDd2-mediated PPQ transport 500 µM PPQ (125 µM CQ): 90.95 pmol oocyte-1 h-1 and 93.39 pmol oocyte-1 h-1 and 84.66 pmol oocyte-1 h-1
PfCRTDd2-mediated PPQ transport 500 µM PPQ (200 µM CQ): 77.82 pmol oocyte-1 h-1 and 87.40 pmol oocyte-1 h-1 and 96.04 pmol oocyte-1 h-1
PfCRTDd2-mediated PPQ transport 500 µM PPQ (400 µM CQ): 65.21 pmol oocyte-1 h-1 and 77.83 pmol oocyte-1 h-1 and 82.19 pmol oocyte-1 h-1
v / (Vmax - v) (1/[PPQ] 0.002000 µM-1): 0.5629
v / (Vmax - v) (1/[PPQ] 0.002857 µM-1): 0.5805
v / (Vmax - v) (1/[PPQ] 0.005000 µM-1): 0.7051
v / (Vmax - v) (1/[PPQ] 0.008000 µM-1): 0.9675
v / (Vmax - v) (1/[PPQ] 0.020000 µM-1): 1.1790
most plausible inhibition model (16 models, ΔAICC, Akaike weight, F-test, label = cold inhibitor of the other drug's transport): partial noncompetitive inhibition
Vmax, maximal velocity of drug transport (Mixed (Partial) model, drug as radiolabeled substrate): 130 ± 3 pmol oocyte^-1 h^-1
Kd (Mixed (Partial) model, drug as cold inhibitor, read-out: KS, dissociation constant for the PfCRT-substrate complex): 210 ± 50 µM
Kd (Mixed (Partial) model, drug as radiolabeled substrate, read-out: KS, dissociation constant for the PfCRT-substrate complex): 125 ± 9 µM
β, partiality factor (Mixed (Partial) model): 0.63 ± 0.08
α, KS interaction factor (Mixed (Partial) model, label = radiolabeled substrate, other drug cold inhibitor): 1.2 ± 0.3
Vmax, maximal velocity of drug transport (Noncompetitive (Partial) model, drug as radiolabeled substrate, other drug as cold inhibitor): 131 pmol oocyte^-1 h^-1 and 131 ± 2 pmol oocyte^-1 h^-1
Kd (Noncompetitive (Partial) model, drug as cold inhibitor, read-out: KS, dissociation constant for the PfCRT-substrate complex): 201 µM and 200 µM
Kd (Noncompetitive (Partial) model, drug as radiolabeled substrate, read-out: KS, dissociation constant for the PfCRT-substrate complex): 130 ± 6 µM
β, partiality factor (Noncompetitive (Partial) model): 0.60 and 0.60 ± 0.06
KMapp ([3H]PPQ + CQ) ([CQ] 0 µM): 122.92 µM
Vmaxapp ([3H]PPQ + CQ) ([CQ] 0 µM): 130.71 pmol oocyte-1 h-1
Vmaxapp/KMapp ([3H]PPQ + CQ) ([CQ] 0 µM): 1.0634 h⁻¹
KMapp ([3H]PPQ + CQ) ([CQ] 25 µM): 130.31 µM
Vmaxapp ([3H]PPQ + CQ) ([CQ] 25 µM): 125.79 pmol oocyte-1 h-1
Vmaxapp/KMapp ([3H]PPQ + CQ) ([CQ] 25 µM): 0.9653 h⁻¹
KMapp ([3H]PPQ + CQ) ([CQ] 50 µM): 129.68 µM
Vmaxapp ([3H]PPQ + CQ) ([CQ] 50 µM): 119.39 pmol oocyte-1 h-1
Vmaxapp/KMapp ([3H]PPQ + CQ) ([CQ] 50 µM): 0.9206 h⁻¹
KMapp ([3H]PPQ + CQ) ([CQ] 125 µM): 128.38 µM
Vmaxapp ([3H]PPQ + CQ) ([CQ] 125 µM): 113.74 pmol oocyte-1 h-1
Vmaxapp/KMapp ([3H]PPQ + CQ) ([CQ] 125 µM): 0.8860 h⁻¹
KMapp ([3H]PPQ + CQ) ([CQ] 200 µM): 133.02 µM
Vmaxapp ([3H]PPQ + CQ) ([CQ] 200 µM): 109.91 pmol oocyte-1 h-1
Vmaxapp/KMapp ([3H]PPQ + CQ) ([CQ] 200 µM): 0.8262 h⁻¹
KMapp ([3H]PPQ + CQ) ([CQ] 400 µM): 140.80 µM
Vmaxapp ([3H]PPQ + CQ) ([CQ] 400 µM): 99.57 pmol oocyte-1 h-1
Vmaxapp/KMapp ([3H]PPQ + CQ) ([CQ] 400 µM): 0.7072 h⁻¹
Kd (secondary plot, half-maximum inhibitory concentration of Vmax,app versus inhibitor concentration, read-out: αKS, dissociation constant between the drug and the PfCRT complex with the other drug): 205 ± 50 µM
α (αKS divided by KS) (secondary plots, label = prebound drug): 0.9 ± 0.7
